We go through 6 molecules from paper PMC8016166, “Identification of a Potent and Selective 5-HT1A Receptor Agonist with In Vitro and In Vivo Antinociceptive Activity” (ACS Chemical Neuroscience, 2020).

One assay deals with T1, human 5-HT1AR (Homo sapiens, UniProt P08908).
T1 construct: expressed in transfected cells
T1 sequence (P08908 1-422): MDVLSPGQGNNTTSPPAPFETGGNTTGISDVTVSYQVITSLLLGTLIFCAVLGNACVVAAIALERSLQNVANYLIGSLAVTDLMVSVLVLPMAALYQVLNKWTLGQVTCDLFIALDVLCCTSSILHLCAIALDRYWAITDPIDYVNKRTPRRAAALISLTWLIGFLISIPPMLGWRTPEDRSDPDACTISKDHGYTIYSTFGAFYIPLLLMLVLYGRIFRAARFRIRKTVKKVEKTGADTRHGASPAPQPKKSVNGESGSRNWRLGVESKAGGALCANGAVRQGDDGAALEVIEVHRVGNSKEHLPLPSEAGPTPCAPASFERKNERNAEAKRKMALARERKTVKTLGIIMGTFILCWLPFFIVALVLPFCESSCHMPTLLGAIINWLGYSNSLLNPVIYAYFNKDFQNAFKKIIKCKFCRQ
In words: Radioligand binding at 5-HT1A in transfected HEK293 cells. The settings on record: for Ki / 5-HT1A pKi ± SEM: HEK293 cells transfected with human 5-HT1AR, [3H]-8-OH-DPAT, at least two independent experiments; for Ki: read-out: 5-HT1A pKi ± SEM (converted). How it is done:
HEK293 cells with stable expression of human 5-HT1A, 5-HT6, and 5-HT7b (prepared with the use of Lipofectamine 2000) were grown in Dulbecco’s Modified Eagle Medium (DMEM) containing 10% dialyzed fetal bovine serum (FBS) and 500 μg/mL G418 sulfate. Liver hepatocellular carcinoma Hep-G2 cells were cultured in DMEM enriched by 10% FBS, 2 mM L-glutamine, 100 IU/mL penicillin, and 50 μg/mL streptomycin (all from Sigma-Aldrich Corporation, a division of Merck KGaA, Darmstadt, Germany). Cell lines were maintained at 37 °C in a humidified atmosphere with 5% CO2. For membrane preparation, the cells were subcultured in 150 cm^2 flasks, grown to 90% confluence, washed twice with prewarmed to 37 °C phosphate buffered saline (PBS), and pelleted by centrifugation (200g) in PBS containing 0.1 mM EDTA and 1 mM dithiothreitol. Prior to membrane preparation, pellets were stored at −80 °C.
The cell pellets were thawed and homogenized in 10 volumes of assay buffer using an Ultra Turrax tissue homogenizer and centrifuged twice at 35 000g for 15 min at 4 °C, with incubation for 15 min at 37 °C in between. The composition of the assay buffers was as follows: for 5-HT1AR: 50 mM Tris HCl, 0.1 mM EDTA, 4 mM MgCl2, 10 μM pargyline, and 0.1% ascorbate; for 5-HT6R: 50 mM Tris HCl, 0.5 mM EDTA, and 4 mM MgCl2; for 5-HT7bR: 50 mM Tris HCl, 4 mM MgCl2, 10 μM pargyline, and 0.1% ascorbate. All the assays were incubated in a total volume of 200 μL in 96-well microtiter plates for 1 h at 37 °C, except 5-HT1AR which was incubated at room temperature. The process of equilibration was terminated by rapid filtration through Unifilter plates with a 96-well cell harvester and radioactivity retained on the filters was quantified on a Microbeta plate reader (PerkinElmer, USA). […] Nonspecific binding was defined with 10 μM of 5-HT in 5-HT1AR and 5-HT7R binding experiments, where 10 μM of methiothepine was used in 5-HT6R assays. Each compound was tested in triplicate at 7 concentrations (10^–10–10^–4 M). The results were analyzed with one-way ANOVA followed by the Bonferroni’s posthoc test. The inhibition constants (pKi) were calculated from the Cheng-Prusoff equation.[46] The results were expressed as means of at least two separate experiments.

For the next assay, the target named is T2, 5-HT1AR (Rattus norvegicus, UniProt P19327).
T2 construct: from tissue; hippocampus per the main-text methods
T2 sequence (P19327 1-422): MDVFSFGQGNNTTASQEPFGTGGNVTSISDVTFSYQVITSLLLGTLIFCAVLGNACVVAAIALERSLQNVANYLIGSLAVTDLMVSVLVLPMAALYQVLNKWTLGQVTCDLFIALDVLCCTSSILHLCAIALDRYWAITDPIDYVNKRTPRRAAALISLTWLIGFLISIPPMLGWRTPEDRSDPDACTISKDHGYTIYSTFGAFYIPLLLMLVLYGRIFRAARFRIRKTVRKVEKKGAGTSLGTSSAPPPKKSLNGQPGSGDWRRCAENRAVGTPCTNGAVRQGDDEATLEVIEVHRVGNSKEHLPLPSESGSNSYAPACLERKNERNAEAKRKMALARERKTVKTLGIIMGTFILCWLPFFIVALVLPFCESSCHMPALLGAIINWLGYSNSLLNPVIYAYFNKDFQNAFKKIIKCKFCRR
In words: [35S]GTPγS functional 5-HT1A assay in rat hippocampal membranes. In kind it is biochemical. Particulars: for eudismic ratio (EC50S/R): S vs R optical isomer; for agonist classification by Emax vs serotonin: [35S]GTPγS binding, partial = half (or lower) as efficacious as serotonin; for Emax: basal 5-HT1AR activation set to 100%, read-out: 5-HT1A Emax (%) ± SEM. How it is done: Male Sprague–Dawley rats were decapitated and their brains removed and placed on ice. The hippocampi (for the functional 5-HT1A receptor assay) or frontal cortexes (for the competitive 5-HT2A and 5-HT2C receptor assays) were dissected and homogenized with a glass homogenizer in 30 vol. ice-cold TED buffer (50 mMTris-HCl, 1 mM EDTA, 1 mM dithiotheritol, pH 7.4). Next, the homogenate was centrifuged at 21 000g for 30 min at 4 °C. The pellet was suspended in 30 vol TED buffer (pH 7.4) and incubated in a water bath for 10 min at 37 °C to remove endogenous ligands. The suspension was centrifuged again at 21 000g for 30 min at 4 °C. The pellet was resuspended in 30 vol TED buffer (pH 7.4) and the centrifugation step was repeated. The final pellet was suspended in 10 vol 50 mM Tris-HCl (pH 7.4) and stored at −80 °C until use.[47]
The [^35S]GTPγS assay was performed according to the method described previously.[49] […] Nonspecific binding was determined with 100 μM of unlabeled GTPγS. The reaction mixture was incubated for 90 min at 36 °C in a volume of 250 μL. […] Next, 96-well Unifilter Plates (PerkinElmer, USA) were presoaked for 1 h with 50 mM Tris-HCl (pH = 7.4) before harvesting. The reaction was terminated by vacuum filtration onto filter plates with the Filter Mate Harvester (PerkinElmer, USA). The samples were then rapidly washed with 2 mL of 50 mM Tris-HCl (pH = 7.4) buffer. The filter plates were dried for 2 h at 50 °C. After drying, 45 μL of EcoScint-20 scintillant (PerkinElmer, USA) was added to every well. The radioactivity was counted in a Trilux MicroBeta^2 counter (PerkinElmer, USA). The data were analyzed with GraphPad Prism 5.0 software (GraphPad Software, San Diego California USA, www.graphpad.com). To determine whether compound-stimulated [^35S]GTPγS binding involved 5-HT1A receptors, two protocols were used.
The curves were fitted with a one-site nonlinear regression model. Efficacy (Emax) and potency (pEC50) were calculated from […] from three separate experiments and expressed as the means ± SEM. […] The differences in compound potency and efficacy were evaluated with one-way ANOVA followed by the Bonferroni’s post-hoc test. The baseline G-protein stimulation was set at 100%. One, two, or three symbols represent statistical significance of 0.05, 0.01, and 0.001, respectively.

[1] abbreviates: rat hippocampal membranes, [35S]GTPγS, three independent experiments, read-out: 5-HT1A pEC50 ± SEM (converted).

Where two headings read alike, the source gives them in different places.

Turning to `c1ccc(C2(c3ccccc3)OCC(CNCCOc3ccccc3-c3ccncc3)O2)cc1` (racemic) [rac-1, N-[(2,2-diphenyl-1,3-dioxolan-4-yl)methyl]-2-[2-(pyridin-4-yl)phenoxy]ethan-1-ammonium hydrogenoxalate], on human 5-HT1AR, the Ki was 9.12 nM. Also, on 5-HT1AR ([35S]GTPγS), the “eudismic ratio (EC50S/R)” value worked out at 4.0. For the same molecule, the “agonist classification by Emax vs serotonin” value on 5-HT1AR is on record as “partial agonists”. For the same molecule, the EC50 at 5-HT1AR ([35S]GTPγS functional assay, read-out: EC50) worked out at 92.1 nM. The Emax at 5-HT1AR (rat hippocampal membranes) is 151 ± 4.2%.

Turning to `Cn1cncc1-c1ccccc1OCCNCC1COC(c2ccccc2)(c2ccccc2)O1` (racemic) [rac-2, N-((2,2-diphenyl-1,3-dioxolan-4-yl)methyl)-2-(2-(1-methyl-1H-imidazol-5-yl)phenoxy)ethan-1-ammonium hydrogenoxalate], the Ki on human 5-HT1AR is 7.41 nM. Further, the “eudismic ratio (EC50S/R)” value on 5-HT1AR ([35S]GTPγS) stood at 2.6. Besides, the “agonist classification by Emax vs serotonin” value on 5-HT1AR is “full agonists”. In addition, the EC50 at 5-HT1AR (setting [1]) was 39.8 nM. Besides, the Emax at 5-HT1AR (rat hippocampal membranes) is 184 ± 2.7%.

As for `c1ccc(C2(c3ccccc3)OC[C@@H](CNCCOc3ccccc3-c3ccncc3)O2)cc1` [(R)-1, N-[(2,2-Diphenyl-1,3-dioxolan-4-yl)methyl]-2-[2-(pyridin-4-yl)phenoxy]ethan-1-ammonium hydrogenoxalate], at human 5-HT1AR, the “5-HT1A pKi ± SEM” value is recorded as 8.35 ± 0.9. For the same molecule, at 5-HT1AR, the “agonist classification by Emax vs serotonin” value is reported as “partial agonists”. For the same molecule, the EC50 at 5-HT1AR (setting [1]) is 63.1 nM. The Emax on 5-HT1AR (rat hippocampal membranes) came to 158 ± 5.9%.

Regarding `Cn1cncc1-c1ccccc1OCCNC[C@@H]1COC(c2ccccc2)(c2ccccc2)O1` [(R)-2, N-((2,2-Diphenyl-1,3-dioxolan-4-yl)methyl)-2-(2-(1-methyl-1H-imidazol-5-yl)phenoxy)ethan-1-ammonium hydrogenoxalate], the Ki at human 5-HT1AR is 12 nM. Further, the “agonist classification by Emax vs serotonin” value at 5-HT1AR is listed as “partial agonists”. Further, at 5-HT1AR (setting [1]), the EC50 was 63.1 nM. Also, the Emax on 5-HT1AR (rat hippocampal membranes) stood at 143 ± 3.6%.

As for `c1ccc(C2(c3ccccc3)OC[C@H](CNCCOc3ccccc3-c3ccncc3)O2)cc1` [(S)-1, N-[(2,2-Diphenyl-1,3-dioxolan-4-yl)methyl]-2-[2-(pyridin-4-yl)phenoxy]ethan-1-ammonium hydrogenoxalate], the “5-HT1A pKi ± SEM” value at human 5-HT1AR turned out to be 8.03 ± 0.10. Also, at 5-HT1AR, the “functional activity of (S)-1 compared with racemate 1” value is listed as 6 fold and the “agonist classification by Emax vs serotonin” value is listed as “partial agonists”. Besides, the EC50 on 5-HT1AR (setting [1]) is 15.8 nM. The Emax at 5-HT1AR (rat hippocampal membranes) worked out at 138 ± 2.9%.

Consider `Cn1cncc1-c1ccccc1OCCNC[C@H]1COC(c2ccccc2)(c2ccccc2)O1` [(S)-2, N-((2,2-Diphenyl-1,3-dioxolan-4-yl)methyl)-2-(2-(1-methyl-1H-imidazol-5-yl)phenoxy)ethan-1-ammonium hydrogenoxalate], for which, on human 5-HT1AR, the “binding affinity at 5-HT1AR, (S)-2 vs (R)-2” value is 3 fold and the Ki was 4.07 nM. Further, the “agonist classification by Emax vs serotonin” value on 5-HT1AR is reported as “full agonists”. Further, the EC50 on 5-HT1AR (setting [1]) is 25.1 nM. The Emax on 5-HT1AR (rat hippocampal membranes) came out at 175 ± 2.7%.

The term Emax denotes the maximal effect, on the per cent scale that the assay sets.
